Experimental data reported in ChEMBL document CHEMBL5233281, “Design, synthesis and biological evaluation of novel 1,3,4,9-tetrahydropyrano[3,4-b]indoles as potential treatment of triple negative breast cancer by suppressing PI3K/AKT/mTOR pathway” (Bioorg Med Chem, 2021).
Calls of active or inactive are those of the source. No cut-off for these calls is given here.

How the values were obtained:
[1] = Inhibition of PI3K/Akt/mTOR signaling in human MDA-MB-231 cells assessed as reduction in Akt phosphorylation at Ser473 residue at 2 uM incubated for 72 hrs in presence of IGF-1 by western blot analysis; assay type: cell-based
MDA-MB-231 [2] = assay: Downregulation of Akt protein expression in human MDA-MB-231 cells incubated for 48 hrs by western blot analysis; assay type: functional, cell-based; settings: dose 1-4 µM
MDA-MB-231 [3] = assay: Downregulation of mTOR protein expression in human MDA-MB-231 cells at 2 uM incubated for 72 hrs in presence of IGF-1 by western blot analysis; assay type: functional, cell-based
MDA-MB-231 [4] = assay: Induction of apoptosis in human MDA-MB-231 cells assessed as increase in apoptotic cells at 2 uM incubated for 24 hrs by AnnexinV-FITC/PI staining based flow cytometry (reference value: 5.24%); assay type: functional
MDA-MB-231 [5] = assay: Antiproliferative activity against human MDA-MB-231 cells assessed as inhibition of cell growth at 1 to 4 uM by CCK8 assay; assay type: functional, cell-based; settings: dose 1-4 µM, time 24-96 hrs, TDE = time-dependent effect
MDA-MB-231 [6] = assay: Induction of reactive oxygen species generation in human MDA-MB-231 cells incubated for 24 hrs by DCFH-DA staining based flow cytometry; assay type: functional, cell-based; settings: dose 1-4 µM
MDA-MB-231 [7] = assay: Induction of apoptosis in human MDA-MB-231 cells assessed as increase in Bax protein expression measured after 48 hrs by western blot analysis; assay type: functional, cell-based; settings: dose 1-4 µM
MDA-MB-231 [8] = assay: Induction of apoptosis in human MDA-MB-231 cells assessed as increase in apoptotic cells at 2 uM incubated for 72 hrs by AnnexinV-FITC/PI staining based flow cytometry (reference value: 5.24%); assay type: functional
MDA-MB-231 [9] = assay: Depletion of intracellular GSH content in human MDA-MB-231 cells at 2 uM incubated for 48 hrs relative to control; assay type: functional
MDA-MB-231 [10] = assay: Downregulation of PI3K protein expression in human MDA-MB-231 cells incubated for 48 hrs by western blot analysis; assay type: functional, cell-based; settings: dose 1-4 µM
MDA-MB-231 [11] = assay: Induction of reactive oxygen species generation in human MDA-MB-231 cells at 4 uM incubated for 24 hrs by DCFH-DA staining based flow cytometry; assay type: functional, cell-based
[12] = Inhibition of PI3K/Akt/mTOR signaling in human MDA-MB-231 cells assessed as reduction in Akt phosphorylation at Thr308 residue at 2 uM incubated for 72 hrs in presence of IGF-1 by western blot analysis; assay type: cell-based
MDA-MB-231 [13] = assay: Induction of reactive oxygen species generation in human MDA-MB-231 cells at 1 uM incubated for 24 hrs by DCFH-DA staining based flow cytometry; assay type: functional, cell-based
[14] = Inhibition of PI3K/Akt/mTOR signaling in human MDA-MB-231 cells assessed as reduction in mTOR phosphorylation at Ser2481 residue at 2 uM incubated for 72 hrs by western blot analysis; assay type: cell-based
MDA-MB-231 [15] = assay: Induction of mitochondrial membrane potential depolarization in human MDA-MB-231 cells assessed as decrease in ratio of red to green fluorescence intensity at 1 to 4 uM incubated for 24 hrs by JC-1 staining based flow cytometry; assay type: functional, cell-based; settings: dose 1-4 µM
A549 = assay: Antiproliferative activity against human A549 cells assessed as inhibition of cell growth incubated for 72 hrs by CCK8 assay; assay type: functional, cell-based; settings: A549, 72 h
[16] = Antiproliferative activity against human MCF-10A cells assessed as inhibition of cell growth incubated for 72 hrs by CCK8 assay; assay type: toxicity, cell-based
[17] = Selectivity index, ratio of IC50 for antiproliferative activity against human MCF-10A cells to IC50 for antiproliferative activity against human MDA-MB-231 cells; assay type: toxicity, cell-based; settings: MCF-10A cells and MDA-MB-231 cells, read-out: Ratio IC50
MDA-MB-231 [18] = assay: Induction of cell cycle arrest in human MDA-MB-231 cells assessed as accumulation of cells at G0/G1 phase at 4 uM incubated for 48 hrs by PI staining based flow cytometry (reference value: 48.33%); assay type: functional
[19] = Inhibition of PI3K/Akt/mTOR signaling in human MDA-MB-231 cells assessed as reduction in mTOR phosphorylation at Ser2448 residue incubated for 48 hrs by western blot analysis; assay type: cell-based; settings: dose 1-4 µM
MDA-MB-231 [20] = assay: Induction of cell cycle arrest in human MDA-MB-231 cells assessed as downregulation of Cyclin D1 protein expression at 1 to 4 uM incubated for 48 hrs by western blot analysis; assay type: functional, cell-based; settings: dose 1-4 µM
MDA-MB-231 [21] = assay: Increase in intracellular Ca2+ level in human MDA-MB-231 cells at 1 to 4 uM incubated for 48 hrs by Fluo-4AM dye based flow cytometry; assay type: functional, cell-based; settings: dose 1-4 µM
[22] = Inhibition of PI3K/Akt/mTOR signaling in human MDA-MB-231 cells assessed as upregulation of PTEN expression incubated for 48 hrs by western blot analysis; assay type: cell-based; settings: dose 1-4 µM
MDA-MB-231 [23] = assay: Induction of apoptosis in human MDA-MB-231 cells assessed as increase in apoptotic cells at 4 uM incubated for 48 hrs by AnnexinV-FITC/PI staining based flow cytometry (reference value: 5.24%); assay type: functional
MDA-MB-231 [24] = assay: Induction of cell cycle arrest in human MDA-MB-231 cells assessed as upregulation of p21 protein expression at 1 to 4 uM incubated for 48 hrs by western blot analysis; assay type: functional, cell-based; settings: dose 1-4 µM
MCF7 = assay: Antiproliferative activity against human MCF7 cells assessed as inhibition of cell growth incubated for 72 hrs by CCK8 assay; assay type: functional, cell-based; settings: MCF7, 72 h
[25] = Inhibition of PI3K/Akt/mTOR signaling in human MDA-MB-231 cells assessed as reduction in mTOR phosphorylation at Ser2448 residue at 2 uM incubated for 72 hrs by western blot analysis; assay type: cell-based
MDA-MB-231 [26] = assay: Induction of apoptosis in human MDA-MB-231 cells assessed as increase in cleaved caspase-9 protein expression at 1 to 4 uM incubated for 48 hrs by western blot analysis; assay type: functional, cell-based; settings: dose 1-4 µM
[27] = Inhibition of PI3K/Akt/mTOR signaling in human MDA-MB-231 cells assessed as reduction in mTOR phosphorylation at Ser2481 residue incubated for 48 hrs by western blot analysis; assay type: cell-based; settings: dose 1-4 µM
MDA-MB-231 [28] = assay: Downregulation of mTOR protein expression in human MDA-MB-231 cells incubated for 48 hrs by western blot analysis; assay type: functional, cell-based; settings: dose 1-4 µM
MDA-MB-231 [29] = assay: Downregulation of PI3K protein expression in human MDA-MB-231 cells at 2 uM incubated for 72 hrs in presence of IGF-1 by western blot analysis; assay type: functional, cell-based
MDA-MB-231 [30] = assay: Induction of apoptosis in human MDA-MB-231 cells assessed as increase in apoptotic cells at 2 uM incubated for 48 hrs by AnnexinV-FITC/PI staining based flow cytometry (reference value: 5.24%); assay type: functional
PC-3 = assay: Antiproliferative activity against human PC-3 cells assessed as inhibition of cell growth incubated for 72 hrs by CCK8 assay; assay type: functional, cell-based; settings: PC-3, 72 h
MDA-MB-231 [31] = assay: Induction of apoptosis in human MDA-MB-231 cells assessed as increase in ratio of Bax to Bcl-2 protein expression measured after 48 hrs by western blot analysis; assay type: functional, cell-based; settings: dose 1-4 µM
MDA-MB-231 [32] = assay: Induction of cell cycle arrest in human MDA-MB-231 cells assessed as accumulation of cells at G0/G1 phase at 1 uM incubated for 48 hrs by PI staining based flow cytometry (reference value: 48.33%); assay type: functional

For `Fc1cc(F)cc(C2OCCc3c2[nH]c2ccccc32)c1` (stereo not given), the inhibition [1] was “inactive”, the inhibition (MDA-MB-231 [2]) was “Dose-Dependent Effect” and the inhibition (MDA-MB-231 [3]) was “inactive”. For the same compound, the Activity (MDA-MB-231 [4]) was 13.14%, the Activity (MDA-MB-231 [5]) was “Tde” and the Activity (MDA-MB-231 [6]) was “Dose-Dependent Effect”. The Activity (MDA-MB-231 [7]) was “Dose-Dependent Effect”, the Activity (MDA-MB-231 [8]) was 31.34% and the “fold change (FC)” value (MDA-MB-231 [9]) was 0.63. For the same compound, the inhibition (MDA-MB-231 [10]) was “Dose-Dependent Effect”, the Activity (MDA-MB-231 [11]) was “Active” and the inhibition [12] was “inactive”. For the same compound, the Activity (MDA-MB-231 [13]) was “inactive”, the inhibition [14] was “inactive” and the Activity (MDA-MB-231 [15]) was “Active”. For the same compound, the IC50 (A549) was 14.8 µM, the IC50 at 72 h [16] was 24.6 µM and the selectivity ratio [17] was 10.8. The Activity (MDA-MB-231 [18]) was 66.67%, the inhibition [19] was “Dose-Dependent Effect” and the Activity (MDA-MB-231 [20]) was “Active”. The Activity (MDA-MB-231 [21]) was “Active”, the inhibition [22] was “Dose-Dependent Effect” and the Activity (MDA-MB-231 [23]) was 37.86%. For the same compound, the Activity (MDA-MB-231 [24]) was “Active”, the IC50 (MCF7) was 7.89 µM and the inhibition [25] was “inactive”. For the same compound, the Activity (MDA-MB-231 [26]) was “Active”, the inhibition [27] was “Dose-Dependent Effect” and the inhibition (MDA-MB-231 [28]) was “Dose-Dependent Effect”. The inhibition (MDA-MB-231 [29]) was “inactive”, the Activity (MDA-MB-231 [30]) was 22.17% and the IC50 (PC-3) was 9.04 µM. The Activity (MDA-MB-231 [31]) was “Dose-Dependent Effect” and the Activity (MDA-MB-231 [32]) was 54.33%.
